# Values of other authors in patent US9623047B2, “Composition and method for improving gastrointestinal health of equine” (Photo Finish Supplements, LLC, priority 2012, dated 2017).
# What was measured:
# [1] = system: tooth pulp and periapical tissue; settings: protective barrier in dental repair and treatment
smiles,measurement,setting,value
"[Ca+2].[OH-].[OH-] [Ca(OH)2, calcium hydroxide]",anti-microbial action,[1],powerful anti-microbial action
same,effect on regrowth of damaged tissue,[1],significant stimulatory effect
same,DNA synthesis of tooth pulp cells,tooth pulp cells,increase
